Measured values from patent publication US7074961B2, “Antidepressants and their analogues as long-acting local anesthetics and analgesics” (The Brigham and Women's Hospital, Inc., priority 2000, dated 2006).
“And” between values parts separate entries of the source, which are not always exact repeats. Equal values may be shown once. Read-outs that look alike come from different tables or passages of the source.

Tests used:
rat sciatic nerve = experiment: Rat sciatic nerve blockade with neurobehavioral examination (proprioception, motor function, nocifensive reaction); type: in vivo; conditions: for Development of sciatic nerve blockade after injection: all rats
Excerpt: Male Sprague-Dawley rats were purchased from Taconic Farm, Inc., Germantown, N.Y., and kept in animal housing facilities with controlled humidity (20-30% relative humidity), room temperature, and a 12-h (6:00 AM-6:00 PM) light-dark cycle. Rats were handled before behavioral testing to familiarize them with the experiment and to minimize stress-induced analgesia. At the time of injections, animals weighed approximately 250-300 g. The experimenter was blinded to the drug/concentration used.
For sciatic nerve blockade, rats were lightly anesthetized by inhalation of sevoflurane and the landmarks (greater trochanter and ischial tuberosity) of the left hind limb were localized. […] The right hind limb was used as a control.
Neurobehavioral examination consisted of evaluation of motor function, proprioception, and nocifensive reaction immediately before inhalation of sevoflurane, at 2, 4, 6, 8, 10, 15, 20, 25, 30, 45, and 60 minutes after the injection, and then at 30-minute intervals until 750 minutes (12.5 hours). The following is a brief description of the neurobehavioral examination.
Motor function. Motor function was evaluated by measuring the “extensor postural thrust” of the hind limbs. The rat was held upright with the hind limb extended so that the body's weight was supported by the distal metatarsus and toes. The extensor thrust was measured as the gram force applied to a digital platform balance (Ohaus Lopro, Fisher Scientific, Florham Park, N.J.), the force that resists contact of the platform by the heel. The preinjection control value (range 130-165 gram) was considered 0% of the maximal possible effect (MPE). The reduction in this force, representing reduced extensor muscle contraction due to motor blockade, was calculated as a percentage of the control force. A force less than 20 grams (also referred to as weight of the “flaccid limb”) was considered 100% MPE.
Proprioception. Proprioception evaluation was based on resting posture and postural reactions (“tactile placing” and “hopping”). The functional deficit was graded as 3 (normal) or 0% MPE, 2 (slightly impaired), 1 (severely impaired), and 0 (complete) or 100% MPE. Keeping the rat in a normal resting posture with the toes flexed and the dorsi of the feet placed on the supporting surface, we evaluated tactile placing as the ability to reposition the toes.
Hopping response was evoked by lifting the front half of the animal off the ground and then lifting one hind limb at a time off the ground so that the animal moved laterally. This process normally evokes a prompt hopping with the weight-bearing limb in the direction of movement to avoid falling over. A predominantly motor impairment causes a prompt but weaker than normal response. Conversely with a predominantly proprioceptive blockade, delayed hopping is followed by greater lateral hops to avoid falling over or, in case of full blockade, no hopping at all.
Nocifensive reaction. Nocifensive reaction was evaluated by the withdrawal reflex and/or vocalization to pinch of a skin fold over the lateral metatarsus (cutaneous pain) and of the distal phalanx of the fifth toe (deep pain). Nocifensive reaction was graded 4 (normal or 0% MPE), 3 (25% MPE), 2 (50% MPE), 1 (75% MPE), and 0 (absent or 100% MPE).

Na+ channels = experiment: Whole-cell voltage clamp of Na+ currents in GH3 cells; type: cell-based, rat; conditions: for Use-dependent (additional) blockade of Na+ currents: 3 μM, high-frequency stimulation at 5 Hz, 60 pulses; for Na+ channels blocked in the inactivated state / Na+ channels blocked in the resting state: 10 μM; for Na+ channels blocked in the inactivated state: conditioning pulse of −60 mV; for Na+ channels blocked in the inactivated state / Na+ channels blocked in the resting state / IC50: GH3 cells; for Na+ channels blocked in the resting state: conditioning pulse of −150 mV; for Time to complete washout: all concentrations and all protocols
Method: The whole-cell configuration of the patch-clamp technique was used to record macroscopic Na^+ currents at room temperatures ranging from 21 to 23 degrees Celsius. Command voltages were controlled by pCLAMP software (Axons Instruments, Inc., Foster City, Calif.) and delivered by a List-EPC7 patch clamp amplifier (List-Electronic, Darmstadt/Eberstadt, Germany). After the establishment of whole-cell configuration, cells were dialyzed for 30 minutes before data were acquired. Data were filtered at 5 kHz, sampled at 50 kHz, collected, and stored with pCLAMP software. Leak and capacitance currents were subtracted by P/4 protocol, which was not applied in the use-dependent block of Na^+ currents. Pipette electrodes were filled with an internal solution containing (in mM) 100 NaF, 30 NaCl, 10 ethylene glycol-bis(β-aminoethylether)N,N,N′,N′-tetraacetic acid (EGTA), and 10 hydroxyethylpiperazineethane sulfonic acid (HEPES) titrated with CsOH to pH 7.2. The external solution consisted of (in mM) 85 choline Cl, 65 NaCl, 2 CaCl2, and 10 HEPES titrated with tetramethylammoniumhydroxide to pH 7.4. Rat clonal pituitary GH3 cells were purchased from the American Type Culture, Collection (Rockville, Md.). Cells were split twice a week and maintained in Dulbecco's modified Eagle's medium supplemented with penicillin/streptomycin (1%) and heat-inactivated fetal bovine serum (10%). The 35 mm-culture dishes in which the cells were grown were also used as a recording chamber. To determine the voltage-dependent blockade by amitriptyline or bupivacaine, a prepulse or conditioning pulse at various voltages and long enough to permit the drug-channel binding interaction to reach its steady-state level was applied (pulse protocol and representative tracings are shown in FIG. 4A). In order to determine the potency of amitriptyline and bupivacaine for the resting and inactivated states, dose-response curves were subsequently constructed at holding potentials of −150 mV and −60 mV, respectively (FIG. 5). Finally, additional blockade provoked by high-frequency stimulation (use dependent blockade) was investigated (pulse protocol and representative tracings are shown in FIG. 6A).

[1] = reportedly; cited from earlier work
[2] = single injection at 5 mM into the rat sciatic notch
[3] = holding potential −60 mV, read-out: 50% inhibitory concentration (IC50), inactivated state
[4] = holding potential −150 mV, read-out: 50% inhibitory concentration (IC50), resting state

With `C[N+](C)(C)CC/C=C1\c2ccccc2COc2ccccc21` [N-methyl doxepin, N-methyl doxepin bromide] the “Duration for complete blockage of motor” value (rat sciatic nerve; 5 mM, pH 7.4) was 5.0 ± 0.5 h, the “Duration for complete blockage of nociception” value (rat sciatic nerve; 5 mM, pH 7.4) was 5.3 ± 0.3 h and the “Duration for complete blockage of proprioception” value (rat sciatic nerve; 5 mM, pH 7.4) was 5.0 ± 0.5 h. The “Time to reach full recovery of motor” value (rat sciatic nerve; 5 mM, pH 7.4) was 10.3 ± 0.2 h, the “Time to reach full recovery of nociception” value (rat sciatic nerve; 5 mM, pH 7.4) was 9.9 ± 0.2 h and the “Time to reach full recovery of proprioception” value (rat sciatic nerve; 5 mM, pH 7.4) was 9.5 ± 0.3 h. The “Development of sciatic nerve blockade after injection” value (rat sciatic nerve) was “complete sciatic nerve blockade”.

In the case of `C[N+](C)(CCC=C1c2ccccc2CCc2ccccc21)CCc1ccccc1.[Br-]` [N-phenyl-ethyl amitriptyline, N-phenyl-ethyl amitriptyline bromide], the “Extension of duration of complete nerve block over parent drug” value (rat sciatic nerve; 5 mM, 5 vs. 70 hrs) is reported as “more than 10 fold”, the “Duration of complete sciatic nerve block” value (rat sciatic nerve; [2]) is reported as 70 to 80 h and the “Full recovery of function” value (rat sciatic nerve; [2]) is reported as 5 to 6 days. The “Inhibition of sodium channels in vitro” value (Na+ channels) was “strong tonic and use-dependent inhibition”.

For `CN(C)CCC=C1c2ccccc2CCc2ccccc21` [amitriptyline], the “Duration of complete blockade, motor” value (rat sciatic nerve; 5 mM) was 168.7 ± 7.9 min, the “Duration of complete blockade, nociception” value (rat sciatic nerve; 5 mM) was 217.5 ± 19.4 min and the “Time to full recovery of function, motor function” value (“Time … motor function” for short) (rat sciatic nerve; 5 mM) was 270 ± 13.9 min. For the same molecule, the “Time to full recovery of function, nociception” value (rat sciatic nerve; 5 mM) was 352.5 ± 12.4 min, the “Time to full recovery of function, proprioception” value (from here on “Time … of function, proprioception”) (rat sciatic nerve; 5 mM) was 255.0 ± 11.3 min and the “Duration of complete blockade, motor” value (rat sciatic nerve; 10 mM) was 402.9 ± 27.7 min. For the same molecule, the “Duration of complete blockade, nociception” value (rat sciatic nerve; 10 mM) was 454.8 ± 38.4 min and 454.3 ± 38.4 min, the “Duration of complete blockade, proprioception” value (rat sciatic nerve; 10 mM) was 467.1 ± 35.8 min and the “Time … motor function” value (rat sciatic nerve; 10 mM) was 582.6 ± 32.6 min. The “Time to full recovery of function, nociception” value (rat sciatic nerve; 10 mM) was 655.7 ± 27.3 min, the “Time … of function, proprioception” value (rat sciatic nerve; 10 mM) was 578.6 ± 39.7 min and the “Onset: time to full nociceptive, motor and proprioceptive blockade” value (“Onset: time to full nociceptive” for short) (rat sciatic nerve; 0.2 ml 5 mM at sciatic nerve) was 30 min. The “Onset: time to full nociceptive” value (rat sciatic nerve; 0.2 ml 10 mM at sciatic nerve) was 6 min, the “Development of sciatic nerve blockade after injection” value (rat sciatic nerve) was “complete sciatic nerve blockade” and the “Use-dependent (additional) blockade of Na+ currents” value (Na+ channels) was about 50%. The “Na+ channels blocked in the inactivated state” value (Na+ channels) was over 95%, the “Na+ channels blocked in the resting state” value (Na+ channels) was about 15% and the “Time to complete washout” value (Na+ channels) was at most 5 min. For the same molecule, the IC50 (Na+ channels; [3]) was 0.9 ± 0.1 µM, the IC50 (Na+ channels; [4]) was 141 ± 4.4 µM and the “Hill coefficient, inactivated state” value (Na+ channels; −60 mV) was 1.35±0.15. For the same molecule, the “Potency relative to bupivacaine, inactivated state” value (Na+ channels; −60 mV) was about 10 ×, the “Hill coefficient, resting state” value (Na+ channels; −150 mV) was 1.56±0.03 and the “Potency relative to bupivacaine, resting state” value (Na+ channels; −150 mV) was about 15 ×.

For `CCCCN1CCCCC1C(=O)Nc1c(C)cccc1C` (centres unmarked) [bupivacaine], the “Duration of complete blockade, motor” value (rat sciatic nerve; 15.4 mM) was 87.5 ± 14.7 min, the “Duration of complete blockade, nociception” value (rat sciatic nerve; 15.4 mM) was 90 ± 13.4 min and the “Duration of complete blockade, proprioception” value (rat sciatic nerve; 15.4 mM) was 90 ± 13.4 min. The “Time … motor function” value (rat sciatic nerve; 15.4 mM) was 160.0 ± 6.3 min, the “Time … of function, proprioception” value (rat sciatic nerve; 15.4 mM) was 155.0 ± 9.2 min and the “Onset: time to full nociceptive” value (rat sciatic nerve; 0.2 ml 15.4 mM at sciatic nerve) was 4 min. For the same molecule, the “Use-dependent (additional) blockade of Na+ currents” value (Na+ channels) was about 14%, the “Na+ channels blocked in the inactivated state” value (Na+ channels) was over 70% and the “Na+ channels blocked in the resting state” value (Na+ channels) was “essentially none”. The “Time to complete washout” value (Na+ channels) was at most 3 min, the IC50 (Na+ channels; [3]) was 9.5 ± 0.6 µM and the IC50 (Na+ channels; [4]) was 9.5 ± 0.6 µM. The “Hill coefficient, inactivated state” value (Na+ channels; −60 mV) was 1.16±0.08, the “Hill coefficient, resting state” value (Na+ channels; −150 mV) was 1.12±0.04 and the “Duration of major nerve block” value [1] was “three to twelve”.
